Experimental data reported in PMC3618943, “Interaction of Natural Dietary and Herbal Anionic Compounds and Flavonoids with Human Organic Anion Transporters 1 (SLC22A6), 3 (SLC22A8), and 4 (SLC22A11)” (Evidence-based Complementary and Alternative Medicine : eCAM, 2013).
Entries after “also recorded” stand apart in the source; their conditions may differ. Counter-ions that a name gives are not always drawn. Like-named read-outs stand apart in the source and are kept apart here.

How the values were obtained:
hOAT3 (SLC22A8) [1] = molecular target: T1, hOAT3 (SLC22A8) (Homo sapiens, UniProt Q8TCC7); experiment: Inhibition of hOAT3-mediated [3H]ES uptake, cell accumulation assay in HEK-hOAT3 cells; assay type: cell-based; settings: 10 min uptake; for effect on hOAT3-mediated ES uptake (in words) / inhibition at 50 µM: 50 μM test compound; for inhibition at 50 µM: 1 μM [3H]ES (50-fold excess)
T1 construct: expressed in transfected cells
T1 sequence (Q8TCC7 1-542): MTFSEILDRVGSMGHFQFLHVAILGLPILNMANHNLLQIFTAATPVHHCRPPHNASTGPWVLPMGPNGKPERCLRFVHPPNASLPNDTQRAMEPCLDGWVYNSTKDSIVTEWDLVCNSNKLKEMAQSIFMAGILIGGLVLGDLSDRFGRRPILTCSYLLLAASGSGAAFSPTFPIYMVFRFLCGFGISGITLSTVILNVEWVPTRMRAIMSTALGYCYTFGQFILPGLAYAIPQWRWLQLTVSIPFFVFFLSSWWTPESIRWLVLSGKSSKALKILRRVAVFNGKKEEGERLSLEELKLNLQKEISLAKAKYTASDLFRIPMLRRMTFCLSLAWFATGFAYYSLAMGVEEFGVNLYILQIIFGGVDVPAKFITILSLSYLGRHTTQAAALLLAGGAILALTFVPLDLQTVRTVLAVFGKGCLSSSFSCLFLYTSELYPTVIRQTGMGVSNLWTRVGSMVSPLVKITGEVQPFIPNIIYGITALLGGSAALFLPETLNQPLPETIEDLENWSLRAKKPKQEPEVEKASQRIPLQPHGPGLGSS
Experimental: (§1) Derivation and culture of stably transfected Chinese hamster ovary (CHO) cells expressing hOAT1 (CHO-hOAT1) and hOAT4 (CHO-hOAT4), stably transfected human embryonic kidney 293 (HEK) cells expressing hOAT3 (HEK-hOAT3), and their corresponding empty vector transfected background control cell lines, have been described previously.
(§2) The cell accumulation assay protocol was performed as described in our recent publications with minor modifications. In brief, 2 × 10^5 cells/well were seeded in 24-well tissue culture plates and grown in the absence of antibiotics for two days. For transport experiments cells were preincubated in transport buffer without substrates or inhibitors for 10 min after which time the buffer was replaced with 400 μL of fresh transport buffer containing 1 μM [^3H]PAH (0.5 μCi/mL) or [^3H]ES (0.25 μCi/mL) with or without test compounds. After incubation for times specified in the figure legends, cellular uptake was quenched by quickly rinsing each well three times with fresh ice-cold transport buffer. Cells were lysed with 1 M NaOH and radioactivity was measured with a liquid scintillation counter and reported as picomoles of substrate per milligram total protein. All intracellular uptake data were corrected for background accumulation in corresponding empty vector transfected control cells. Kinetic calculations were performed using GraphPad Prism Software version 5.0 (GraphPad Software Inc., San Diego, CA). The half maximal inhibitory concentrations (IC50) and inhibitory constants (K i) were calculated using nonlinear regression with the appropriate models. Results were confirmed by repeating all experiments at least three times with triplicate wells for each data point. […]
Figure 4 Inhibitory effects of the nine test compounds on hOAT3-mediated ES uptake. Ten-minute uptake of [^3H]ES (1 μM) was measured in HEK-hOAT3 cells in the absence and presence of test compounds (50 μM) or probenecid (1000 μM). Data represent hOAT3-mediated transport specifically, that is, data have been corrected for background ES accumulation measured in empty vector transfected cells. Values are mean ± S.D. of triplicate values from a representative experiment. * denotes P < 0.05, ** denotes P < 0.01, and *** denotes p < 0.001 as determined by one-way ANOVA followed by Dunnett's t-test.

hOAT1 (SLC22A6) [2] = molecular target: T2, hOAT1 (SLC22A6) (Homo sapiens, UniProt Q4U2R8); experiment: Inhibition of hOAT1-mediated [3H]PAH uptake, cell accumulation assay in CHO-hOAT1 cells; assay type: cell-based; settings: dose-response 0.01–500 μM, 1 μM [3H]PAH, 1 min uptake, mean ± S.E.M., read-out: IC50 on hOAT1-mediated PAH transport
T2 construct: expressed in transfected cells
T2 sequence (Q4U2R8 1-550 isoform Q4U2R8-2): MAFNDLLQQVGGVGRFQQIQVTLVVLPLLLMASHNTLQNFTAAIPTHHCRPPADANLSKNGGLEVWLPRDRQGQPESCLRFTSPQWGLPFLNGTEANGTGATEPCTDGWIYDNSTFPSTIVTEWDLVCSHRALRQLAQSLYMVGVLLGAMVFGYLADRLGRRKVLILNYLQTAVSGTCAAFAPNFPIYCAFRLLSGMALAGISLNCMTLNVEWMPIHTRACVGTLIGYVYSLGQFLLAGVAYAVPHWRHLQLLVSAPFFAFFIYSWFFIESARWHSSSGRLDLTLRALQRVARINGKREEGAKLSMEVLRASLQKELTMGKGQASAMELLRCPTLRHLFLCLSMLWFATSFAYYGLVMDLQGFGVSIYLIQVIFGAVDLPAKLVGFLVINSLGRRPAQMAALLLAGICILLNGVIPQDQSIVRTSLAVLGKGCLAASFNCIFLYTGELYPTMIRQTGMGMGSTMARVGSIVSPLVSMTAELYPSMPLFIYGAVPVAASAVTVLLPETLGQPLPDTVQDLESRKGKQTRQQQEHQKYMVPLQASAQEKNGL

hOAT1 (SLC22A6) [3] = molecular target: T2, hOAT1 (SLC22A6); experiment: as above; assay type: cell-based; settings: for Ki: assuming competitive inhibition, 1 min uptake, read-out: inhibition constant Ki for hOAT1; for Ki / effect on hOAT1-mediated PAH uptake (in words): 1 μM [3H]PAH
Experimental: The cell accumulation assay protocol was performed as described in our recent publications with minor modifications. In brief, 2 × 10^5 cells/well were seeded in 24-well tissue culture plates and grown in the absence of antibiotics for two days. For transport experiments cells were preincubated in transport buffer without substrates or inhibitors for 10 min after which time the buffer was replaced with 400 μL of fresh transport buffer containing 1 μM [^3H]PAH (0.5 μCi/mL) or [^3H]ES (0.25 μCi/mL) with or without test compounds. After incubation for times specified in the figure legends, cellular uptake was quenched by quickly rinsing each well three times with fresh ice-cold transport buffer. Cells were lysed with 1 M NaOH and radioactivity was measured with a liquid scintillation counter and reported as picomoles of substrate per milligram total protein. All intracellular uptake data were corrected for background accumulation in corresponding empty vector transfected control cells. Kinetic calculations were performed using GraphPad Prism Software version 5.0 (GraphPad Software Inc., San Diego, CA). The half maximal inhibitory concentrations (IC50) and inhibitory constants (K i) were calculated using nonlinear regression with the appropriate models. Results were confirmed by repeating all experiments at least three times with triplicate wells for each data point.
Ten-minute uptake of [^3H]PAH (1 μM) was measured in CHO-hOAT1 cells in the absence and presence of test compounds (50 μM) or probenecid (1000 μM). Data represent hOAT1-mediated transport specifically, that is, data have been corrected for background PAH accumulation measured in empty vector transfected cells. Values are mean ± S.D. of triplicate values from a representative experiment. ** denotes P < 0.01, and *** denotes P < 0.001 as determined by one-way ANOVA followed by Dunnett's t-test.
One-minute uptake of [^3H]PAH (1 μM) in CHO-hOAT1 cells was measured in the presence of increasing concentrations (10^−7 to 5 × 10^−4 M) of test compounds. Data were corrected by subtracting background PAH accumulation measured in empty vector transfected cells. IC50 values were determined with nonlinear regression and the “log(inhibitor) versus response” model using GraphPad Prism software. Experiments were repeated three times with triplicate samples and graphs shown are from representative experiments with values plotted as mean ± S.D. (n = 3). The data were used to generate mean IC50 ± S.E.M. estimates.

hOAT4 (SLC22A11) = molecular target: T3, hOAT4 (SLC22A11) (Homo sapiens, UniProt Q9NSA0); experiment: Inhibition of hOAT4-mediated [3H]ES uptake, cell accumulation assay in CHO-hOAT4 cells; assay type: cell-based
T3 construct: expressed in transfected cells
T3 sequence (Q9NSA0 1-550): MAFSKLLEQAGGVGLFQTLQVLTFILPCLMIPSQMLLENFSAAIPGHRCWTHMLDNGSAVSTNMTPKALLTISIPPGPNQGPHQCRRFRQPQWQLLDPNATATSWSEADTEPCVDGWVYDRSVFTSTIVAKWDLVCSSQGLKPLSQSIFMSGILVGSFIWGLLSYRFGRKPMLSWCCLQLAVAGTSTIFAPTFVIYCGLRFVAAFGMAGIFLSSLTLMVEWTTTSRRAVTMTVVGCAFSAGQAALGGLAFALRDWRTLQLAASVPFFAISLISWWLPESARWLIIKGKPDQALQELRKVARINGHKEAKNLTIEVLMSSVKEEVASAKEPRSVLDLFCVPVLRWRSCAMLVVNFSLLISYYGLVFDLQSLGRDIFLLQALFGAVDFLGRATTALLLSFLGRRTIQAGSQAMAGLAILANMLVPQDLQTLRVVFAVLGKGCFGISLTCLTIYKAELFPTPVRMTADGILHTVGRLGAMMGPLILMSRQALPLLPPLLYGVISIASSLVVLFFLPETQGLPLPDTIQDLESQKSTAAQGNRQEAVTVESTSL
Experimental: as §1, §2
Figure 5 Inhibitory effects of the nine test compounds on hOAT4-mediated ES uptake. Ten minute uptake of [^3H]ES (1 μM) was measured in CHO-hOAT4 cells in the absence and presence of test compounds (50 μM) or ES (1000 μM for self-inhibition). Data represent hOAT4-mediated transport specifically, that is, data have been corrected for background ES accumulation measured in empty vector transfected cells. Values are mean ± S.D. of triplicate values from a representative experiment. * denotes P < 0.05, and *** denotes P < 0.001 as determined by one-way ANOVA followed by Dunnett's t-test.

[4] = human subjects, cited from earlier work
hOAT3 (SLC22A8) [5] = molecular target: T1, hOAT3 (SLC22A8); design: method as in PMID 22877817; settings: linear uptake for initial 1 min; cited from earlier work
[6] = 50 μM test compound, 1 μM [3H]PAH (50-fold excess), 10 min uptake
[7] = 50 μM test compound, 1 μM [3H]ES, 10 min uptake, CHO-hOAT4 cells
[8] = 50 μM test compound, 10 min uptake

Row | Compound | effect on hOAT3-mediated ES uptake (in words) (hOAT3 (SLC22A8) [1]; 1 μM [3H]ES) | effect on hOAT4-mediated ES uptake (in words) (hOAT4 (SLC22A11); [7]) | inhibition at 50 µM (hOAT3 (SLC22A8) [1]) [%] | inhibition at 50 µM (hOAT1 (SLC22A6) [3]; [6]) [%] | effect on hOAT1-mediated PAH uptake (in words) (hOAT1 (SLC22A6) [3]; [8]) | further results
1 | CC1(C)[C@@H](O)CC[C@]2(C)[C@H]3C(=O)C=C4[C@@H]5C[C@@](C)(C(=O)O)CC[C@]5(C)CC[C@@]4(C)[C@]3(C)CC[C@@H]12 [18β-glycyrrhetinic acid] | failed to produce significant inhibition | significant stimulation of ES uptake |  |  |  | IC50 (hOAT1 (SLC22A6) [2]): 2.7 ± 0.2 µM; inhibition of hOAT1-mediated PAH uptake (hOAT1 (SLC22A6) [3]; [6]): 56%; Ki (hOAT1 (SLC22A6) [3]): 2.5 ± 0.2 µM; Cmax ([4]; oral, 130–144 mg glycyrrhizin, assuming plasma 18α- : 18β-glycyrrhetinic acid about 1 : 3): 110 to 2900 nM
2 | CCCN(CCC)S(=O)(=O)c1ccc(C(=O)O)cc1 [probenecid, reference compound] |  |  |  |  |  | inhibition at 1000 µM (hOAT3 (SLC22A8) [1]; probenecid 1000 μM, 1 μM [3H]ES): > 96%
3 | O=C(C=Cc1ccc(O)c(O)c1)OC1CC(OC(=O)C=Cc2ccc(O)c(O)c2)(C(=O)O)CC(O)C1O (stereo not shown) [1,5-Dicaffeoylquinic acid, 1,5-dicaffeoylquinic acid] |  | significant stimulation of ES uptake | 30 to 35 | 22 |  | Cmax ([4]; oral, 600 mg): 140 nM
4 | O=C(/C=C/c1ccc(O)c(O)c1)O[C@@H]1C[C@@](OC(=O)/C=C/c2ccc(O)c(O)c2)(C(=O)O)C[C@@H](O)[C@@H]1O [1,3-Dicaffeoylquinic acid, 1,3-dicaffeoylquinic acid] |  |  | 41 | 64 |  | IC50 (hOAT1 (SLC22A6) [2]): 1.2 ± 0.4 µM; Ki (hOAT1 (SLC22A6) [3]): 1.1 ± 0.2 µM
5 | CCCCCCC=CCCCCCCCCCc1cccc(O)c1C(=O)O [ginkgolic acid (17 : 1)] |  |  | 41 | 42 |  | 
6 | Oc1cc(O)c2c(c1)O[C@H](c1ccc(O)c(O)c1)[C@H](O)C2 [Epicatechin] |  |  | 30 to 35 |  | no inhibition | Cmax ([4]; oral, 37 mg): 200 nM
7 | CCCCCCC=CCCCCCCCc1cccc(O)c1C(=O)O [ginkgolic acid (15 : 1)] |  |  | 30 to 35 |  |  | 
8 | C[C@]12CC[C@@H]3c4ccc(OS(=O)(=O)O)cc4CC[C@H]3[C@@H]1CCC2=O [ES, estrone sulfate, reference compound] |  |  |  |  |  | K m of ES uptake in hOAT3 expressing cells (hOAT3 (SLC22A8) [5]): 14.5 µM; inhibition of hOAT4-mediated ES uptake (self-inhibition) (hOAT4 (SLC22A11); unlabeled ES 1000 μM, 1 μM [3H]ES, 10 min uptake, CHO-hOAT4 cells): > 96%
9 | C[C@H]1[C@H](C)CC[C@]2(C(=O)O)CC[C@]3(C)C(=CC[C@@H]4[C@@]5(C)CC[C@H](O)C(C)(C)[C@@H]5CC[C@]43C)[C@H]12 [Ursolic acid] | failed to produce significant inhibition; also recorded: without effect | without effect |  |  | significant stimulation of uptake | Cmax ([4]; i.v., 186 mg): 7400 nM
10 | Oc1cc(O)c2c(c1)O[C@H](c1ccc(O)c(O)c1)[C@@H](O)C2 [Catechin] | failed to produce significant inhibition |  |  |  | no inhibition | inhibition at 50 µM (hOAT4 (SLC22A11); [7]): 32%; IC50 (hOAT4 (SLC22A11); inferred from level of inhibition at 50 μM, no kinetic study, read-out: IC50 on hOAT4 transport activity): > 50 µM
